# Assay results published in US20170027955A1, “EXPRESSION LEVELS OF BCL-XL, BCL2, BCL-W, AND BAD AND CANCER THERAPIES” (Constellation Pharmaceuticals, Inc., priority 2014, published 2017).
# Legend:
# NOMO-1 cells = experiment: BETi-resistant NOMO-1 AML cells: proliferation and viability; format: cell-based
# Description: A BETi-resistant acute myeloid leukemia (AML) cell line was prepared. NOMO-1 cells were treated with increasing concentrations of (9), and when the population consisted of less than 80% live cells, viable cells were enriched by spinning over Ficoll-Paque (GE Healthcare). At the end of this procedure cells were able to proliferate in the presence of 1 μM (9), and were maintained at this dose, which is about 30-fold higher than their original GI50 (FIG. 6A). The ideal growth conditions for the BETi-tolerant cells appeared to be in the presence of ˜0.1 μM (9). While parental cells induced a robust apoptotic response in response to BETi, resistant cells grown in the presence of BETi only underwent apoptosis when the inhibitor was completely removed (FIG. 6B).
# (See e.g., Fernald and Kurokawa. Evading Apoptosis in Cancer. Trends Cell Biol. 2013 December; 23(12): 620-633.) Expression of the pro-apoptotic gene BCL2L11 (encoding BIM) was increased in parental cells upon treatment with BETi (FIG. 6C). The relative expression ratio of BCL2L11/BCL2 correlated with the apoptotic response in parental cells (FIG. 6D). In the resistant cells cultured in the presence of (9), high levels of BIM were maintained (FIG. 6C). […]
# AMO-1 cell line = experiment: Sub-G1 (apoptosis) and G0/G1 (G1 arrest) DNA content after 4 days of treatment, flow cytometry; format: cell-based
# Description: (§1) Approximately 60 hematological cancer cell lines were profiled, with representative numbers of leukemia, multiple myeloma/plasmacytoma, and lymphoma cell lines. Cells were grown in the presence of BET inhibitors, (9), (10), and (11), for 4 days. Viability was measured using a fluorescent dye (resazurin, Sigma) that measures mitochondrial fitness as a proxy for cell number. Raw fluorescence values at each compound concentration were normalized to the values in the absence of compound, and percentage growth was plotted to determine the concentration of compound at which 50% growth inhibition was achieved (GI50). Cells were then fixed and stained with propidium iodide for flow cytometric determination of cell cycle distribution. The percentage of cells with less than G0/G1 DNA content (% subG1) was used as a measurement of apoptosis. The percentage of viable cells (non-subG1 cells) with G0/G1 DNA content was measured, and the % GI for control cells was subtracted from the % GI at each compound concentration to calculate a percentage increase in G1.
# The bottom panels show the dose dependent increase in the percentage of cells with sub-G1 DNA content (apoptosis) and G0/G1 DNA content (G1 arrest) in response to 4 days of treatment with the same BET inhibitors in the AMO-1 cell line.
# [1] = tested on: panel of 245 cell lines of varying lineages; experiment: Viability of a panel of 245 cell lines treated with BET inhibitor for 3 or 4 d (Cell Titer Glo or resazurin); format: cell-based
# Description: In order to identify predictive biomarkers for phenotypic response to BET inhibition, viability data was obtained for a panel of cell lines for which gene expression data are available. A panel of 245 cell lines of varying lineages (FIG. 7) was treated with the BET bromodomain inhibitor (9) for 3 or 4 d. Viability was assessed using either Cell Titer Glo (Promega) or resazurin (Sigma). GI50 values were determined as the concentration of inhibitor that caused viability to be reduced by 50% relative to the vehicle-treated control cells. Cell lines were defined as “sensitive” if GI50 values were at or below 0.25 μM, and as “insensitive” if GI50 values were above 0.25 μM. […] Where multiple probe sets were available for a given gene, the probe set that hybridized to all transcript variants and gave the largest standard deviation across the panel of cell lines was chosen. Based on the correlations shown in FIGS. 8 and 9, cell lines expressing high levels of BCL2 were defined as those expressing an RMA value of BCL2 within the top 33% of all 245 cell lines. Similarly, cell lines expressing low levels of BCL2L1, BCL2L2, and BAD were defined as those expressing RMA values of these genes within the bottom 33% of all cell lines. […] Further enrichment was obtained by combining criteria, with the highest enrichment obtained by selecting for cell lines with high expression of BCL2 and low expression of BCL2L1 (65%±7% response rate) or high expression of BCL2 and low expression of BAD (75%±6% response rate) (FIG. 11). Similar enrichment of responsive cell lines is obtained when cell lines of hematologic origin are considered separately from those of solid tumor origin (FIG. 12-15).
# A375 cells = experiment: Growth inhibition (GI50) of A375 cells by BET inhibitor; format: cell-based, human
# Description: as §1
# The human melanoma cell line A375 is phenotypically sensitive to BET inhibition, with a GI50 of 0.10 μM for (9) (FIG. 3, top panel). To understand possible mechanisms of acquired and de novo resistance to BET inhibition, A375 cells were grown in the presence of 1 μM of (9) for approximately 90 days. […]
# [2] = tested on: BET inhibitor resistant A375 cells; experiment: Co-treatment of BET inhibitor resistant A375 cells with (9) and ABT-737 for 11 days; format: cell-based, human; conditions: resistant A375 cells co-treated with 1 μM (9) and increasing concentrations of ABT-737, 11 days
# Description: BCL-xL is targeted by several commercially available BCL-2 family small molecule inhibitors (Billard, C. et al. BH3 mimetics: status of the field and new developments. Mol Cancer Ther. 2013 September; 12(9):1691-700). To test whether pharmacological inhibition of BCL-xL would restore sensitivity to BET inhibition in BET inhibitor resistant A375 cells, parental and resistant cells were co-treated with 1 μM (9) or DMSO and increasing concentrations of the pan-BCL2 inhibitor ABT-737 for 11 days (Ottersdorf, T., et al. An inhibitor of Bcl-2 family proteins induces regression of solid tumours. Nature. 2005 Jun. 2; 435(7042):677-81).
structure (smiles),measurement,setting,value
"CC1(C)CCC(CN2CCN(c3ccc(C(=O)NS(=O)(=O)c4ccc(NCC5CCOCC5)c([N+](=O)[O-])c4)c(Oc4cnc5[nH]ccc5c4)c3)CC2)=C(c2ccc(Cl)cc2)C1 [ABT-199, reference compound]",phenotypic sensitivity of resistant cells to BCL2 inhibitor,"NOMO-1 cells; resistant NOMO-1 cells, FIG. 6f",increased phenotypic sensitivity
Cc1noc2c1-c1ccccc1C(c1ccc(Cl)cc1)=N[C@H]2CC(N)=O [(10)],maximal response (% sub-G1 and G0/G1 DNA content),AMO-1 cell line,equivalent
Cc1sc2c(c1C)C(c1ccc(Cl)cc1)=N[C@@H](CC(N)=O)c1nnc(C)n1-2 [(9)],maximal response (% sub-G1 and G0/G1 DNA content),AMO-1 cell line,equivalent
same,overall response rate (fraction of cell lines with GI50 equal to or less than 0.25 μM),[1]; all 245 cell lines,28%
same,response rate (fraction of cell lines with GI50 equal to or less than 0.25 μM),[1]; cell lines with high expression of BCL2 and low expression of BAD,75%±6%
same,response rate (fraction of cell lines with GI50 equal to or less than 0.25 μM),[1]; cell lines with high expression of BCL2 and low expression of BCL2L1,65%±7%
same,shift in GI50 of resistant clones relative to parental cells,"A375 cells; A375 clones grown in 1 μM (9) for approximately 90 days, after 11 days",relatively modest shift in GI50
same,GI50,"A375 cells; A-375, parental human melanoma cell line A375",100 nM
same,maintenance concentration of resistant cells (1 μM) relative to original GI50,NOMO-1 cells; BETi-resistant NOMO-1 cells proliferating in 1 μM (9),about 30 fold
CN(C)CC[C@H](CSc1ccccc1)Nc1ccc(S(=O)(=O)NC(=O)c2ccc(N3CCN(Cc4ccccc4-c4ccc(Cl)cc4)CC3)cc2)cc1[N+](=O)[O-] [ABT-737],restoration of sensitivity to (9),[2],restores sensitivity to (9) in a dose-dependent manner
Cc1noc2c1-c1ccc(-c3cnn(C)c3)cc1C(c1ccc(Cl)cc1)=N[C@H]2CC(N)=O [(11)],maximal response (% sub-G1 and G0/G1 DNA content),AMO-1 cell line,equivalent
